Experimental data published in patent US10988465B2, “CXCR4 inhibitors and uses thereof” (X4 Pharmaceuticals, Inc., priority 2016, dated 2021).

How the values were obtained:
[1] = target: T1, Jurkat cells expressing CXCR4 (Homo sapiens, UniProt P61073); assay: Chemokine (CXCL12-AF647) binding inhibition assay; details: CXCL12-AF647 25 ng/mL, read-out: IC50 CXCL-12 binding Jurkat
T1 construct: endogenous in cells; host or cells: Jurkat
Procedure, shortened: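 Cells in HBSS, 20 mM HEPES, 0.2% BSA, pH 7.4, preincubated 15 min at room temperature with compound, then 25 ng/mL CXCL12-AF647 for 30 min. After washing and paraformaldehyde fixation, bound ligand read by flow cytometry; percent inhibition calculated from MFI relative to unlabeled and ligand-only controls.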

[2] = in vitro; details: human, Caco-2, pH 7.4
Procedure, shortened: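 Caco-2 monolayers, checked by TEER with Lucifer yellow as marker, were dosed with 10 μM compound in HBSS pH 7.4 in A-to-B and B-to-A directions. Incubation was 90 min at 37° C, in duplicate. Samples were quantified by LC-MS/MS and Papp calculated.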

[3] = target: T2, CXCR-4 transfected U87 cell line (U87.CXCR4) (Homo sapiens, UniProt P61073); assay: Intracellular CXCL-12-induced calcium mobilization assay (FLIPR); assay type: cell-based; details: U87.CXCR4 cells; CXCL-12 25-50 ng/mL; compound added 15 min before; read-out: IC50 CXCL-12 Ca^2+ flux U87.CXCR4+
T2 construct: expressed in transfected cells; host or cells: U87 (U87.CXCR4)
T2 sequence (P61073 whole entry): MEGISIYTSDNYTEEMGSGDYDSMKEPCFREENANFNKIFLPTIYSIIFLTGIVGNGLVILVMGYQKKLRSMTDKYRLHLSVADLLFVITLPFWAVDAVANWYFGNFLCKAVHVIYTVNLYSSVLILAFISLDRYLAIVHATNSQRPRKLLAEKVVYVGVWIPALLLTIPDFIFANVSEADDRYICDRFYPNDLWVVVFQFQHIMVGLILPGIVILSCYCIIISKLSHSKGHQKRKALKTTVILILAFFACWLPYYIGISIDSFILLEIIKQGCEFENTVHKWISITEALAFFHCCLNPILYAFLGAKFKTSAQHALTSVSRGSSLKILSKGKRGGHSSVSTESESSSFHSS
Procedure, shortened: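 U87 cells stably expressing human CXCR4, loaded with Fluo-2 AM (4 μM final) for 45 min at 37 °C in HBSS/20 mM HEPES/0.2% BSA, pH 7.4. Calcium flux triggered by CXCL-12 (25-50 ng/mL) was followed by FLIPR fluorescence over time at 37 °C.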

T1 sequence (P61073 whole entry): as above

`CN1C2CCC1CN(c1cccc3nc([C@H]4CCC[C@@H](c5ncccc5Cl)N4)[nH]c13)C2` [I-119] showed an IC50 [1] of 0.01 to 100 nM, a Papp A→B at 90 min, 10 μM [2] of 10 to 30 ×10⁻⁶ cm/s and a Papp B→A at 90 min, 10 μM [2] of 10 to 30 ×10⁻⁶ cm/s. It also gave an efflux ratio at 90 min, 10 μM [2] of 0.1 to 10 and an IC50 [3] of 100 to 1000 nM.
`Cc1cccnc1[C@@H]1CCC[C@H](c2nc3cccc(N4CCN(C)CC4)c3n2C)N1C` [I-35] showed an IC50 [1] of 0.01 to 100 nM, a Papp A→B at 90 min, 10 μM [2] of 0.1 to 10 ×10⁻⁶ cm/s and a Papp B→A at 90 min, 10 μM [2] of 0.1 to 10 ×10⁻⁶ cm/s. The efflux ratio at 90 min, 10 μM [2] was 0.1 to 10 and the IC50 [3] was 0.01 to 100 nM.
`Cc1cccnc1[C@@H]1CCC[C@H](c2nc3c(Br)ccc(Br)c3n2CC2CCN(C)CC2)N1C` [I-47] gave an IC50 [1] of 0.01 to 100 nM, a Papp A→B at 90 min, 10 μM [2] of 0.1 to 10 ×10⁻⁶ cm/s and a Papp B→A at 90 min, 10 μM [2] of 10 to 30 ×10⁻⁶ cm/s. It also gave an efflux ratio at 90 min, 10 μM [2] of 0.1 to 10 and an IC50 [3] of 100 to 1000 nM.
For `Cc1cccnc1[C@H]1CCC[C@@H](c2nc3cccc(N4CCN(C)CC4)c3[nH]2)N1C` (single isomer, unassigned) [I-3b], the IC50 [1] was 0.01 to 100 nM, the Papp A→B at 90 min, 10 μM [2] was 0.1 to 10 ×10⁻⁶ cm/s and the Papp B→A at 90 min, 10 μM [2] was 0.1 to 10 ×10⁻⁶ cm/s. It also gave an IC50 [3] of 0.01 to 100 nM.
Work on `COCCCn1c([C@H]2CCC[C@@H](c3ncccc3C)N2)nc2ccccc21` [I-158] yielded an IC50 [1] of at least 1000 nM, a Papp A→B at 90 min, 10 μM [2] of 10 to 30 ×10⁻⁶ cm/s and a Papp B→A at 90 min, 10 μM [2] of 10 to 30 ×10⁻⁶ cm/s. For the same molecule, the efflux ratio at 90 min, 10 μM [2] was 0.1 to 10 and the IC50 [3] was at least 1000 nM.
Work on `CN(C)CCCn1ccnc1[C@H]1CCC[C@@H](c2ncccc2Cl)N1C` [I-169] yielded an IC50 [1] of 0.01 to 100 nM, a Papp A→B at 90 min, 10 μM [2] of 0.1 to 10 ×10⁻⁶ cm/s and a Papp B→A at 90 min, 10 μM [2] of over 30 ×10⁻⁶ cm/s. It also gave an efflux ratio at 90 min, 10 μM [2] of 0.1 to 10 and an IC50 [3] of 100 to 1000 nM.
With `CN1CCN(c2cccc3nc([C@H]4CCC[C@@H](c5ncccc5Br)N4C)[nH]c23)CC1` [I-28, 2-((2R,6S)-6-(3-bromopyridin-2-yl)-1-methylpiperidin-2-yl)-7-(4-methylpiperazin-1-yl)-1H-benzo[d]imidazole] the IC50 [1] was 0.01 to 100 nM, the Papp A→B at 90 min, 10 μM [2] was 0.1 to 10 ×10⁻⁶ cm/s and the Papp B→A at 90 min, 10 μM [2] was 0.1 to 10 ×10⁻⁶ cm/s. For the same molecule, the efflux ratio at 90 min, 10 μM [2] was 0.1 to 10 and the IC50 [3] was 100 to 1000 nM.
`Cc1cccnc1[C@@H]1CCC[C@H](c2nc3ccccc3[nH]2)N1CCc1ccccn1` [I-27, 2-((2R,6S)-6-(3-methylpyridin-2-yl)-1-(2-(pyridin-2-yl)ethyl)piperidin-2-yl)-1H-benzo[d]imidazole] gave an IC50 [1] of 0.01 to 100 nM, a Papp A→B at 90 min, 10 μM [2] of 10 to 30 ×10⁻⁶ cm/s and a Papp B→A at 90 min, 10 μM [2] of 10 to 30 ×10⁻⁶ cm/s. The efflux ratio at 90 min, 10 μM [2] was 0.1 to 10 and the IC50 [3] was 0.01 to 100 nM.
For `CCN1CCC(Oc2cccc3nc([C@H]4CCC[C@@H](c5ncccc5C)N4C)[nH]c23)CC1` [I-43], the IC50 [1] was 0.01 to 100 nM, the Papp A→B at 90 min, 10 μM [2] was 0.1 to 10 ×10⁻⁶ cm/s and the Papp B→A at 90 min, 10 μM [2] was 10 to 30 ×10⁻⁶ cm/s. For the same molecule, the efflux ratio at 90 min, 10 μM [2] was 0.1 to 10 and the IC50 [3] was 0.01 to 100 nM.
Work on `CN(C)C1CCN(c2cccc3nc([C@H]4CCC[C@@H](c5ncccc5Cl)N4)[nH]c23)CC1` [I-153] yielded an IC50 [1] of 0.01 to 100 nM, a Papp A→B at 90 min, 10 μM [2] of 0.1 to 10 ×10⁻⁶ cm/s and a Papp B→A at 90 min, 10 μM [2] of 10 to 30 ×10⁻⁶ cm/s. It also gave an efflux ratio at 90 min, 10 μM [2] of 0.1 to 10 and an IC50 [3] of 0.01 to 100 nM.
`CN1CCC(n2ccnc2[C@H]2CCC[C@@H](c3ncccc3Cl)N2)CC1` [I-172] showed an IC50 [1] of at least 1000 nM, a Papp A→B at 90 min, 10 μM [2] of 10 to 30 ×10⁻⁶ cm/s and a Papp B→A at 90 min, 10 μM [2] of 10 to 30 ×10⁻⁶ cm/s. It also gave an efflux ratio at 90 min, 10 μM [2] of 0.1 to 10 and an IC50 [3] of at least 1000 nM.
In the case of `Cc1cccnc1[C@@H]1CCC[C@H](c2nccn2CC2CCN(C)CC2)N1` [I-175], the IC50 [1] is reported as 0.01 to 100 nM, the Papp A→B at 90 min, 10 μM [2] is reported as 0.1 to 10 ×10⁻⁶ cm/s and the Papp B→A at 90 min, 10 μM [2] is reported as 10 to 30 ×10⁻⁶ cm/s. For the same molecule, the efflux ratio at 90 min, 10 μM [2] was 10 to 30 and the IC50 [3] was 100 to 1000 nM.
`Cc1cccnc1[C@@H]1CCC[C@H](c2nc3cccc(N4CCNCC4)c3[nH]2)N1C` [I-136] gave an IC50 [1] of 0.01 to 100 nM, a Papp A→B at 90 min, 10 μM [2] of 0.1 to 10 ×10⁻⁶ cm/s and a Papp B→A at 90 min, 10 μM [2] of 10 to 30 ×10⁻⁶ cm/s. The efflux ratio at 90 min, 10 μM [2] was 10 to 30 and the IC50 [3] was 0.01 to 100 nM.
`Cc1cccnc1[C@@H]1CCC[C@H](c2nc3cccc(N4C5CCC4CNC5)c3[nH]2)N1C` [I-99] showed an IC50 [1] of 0.01 to 100 nM, a Papp A→B at 90 min, 10 μM [2] of 0.1 to 10 ×10⁻⁶ cm/s and a Papp B→A at 90 min, 10 μM [2] of over 30 ×10⁻⁶ cm/s. The efflux ratio at 90 min, 10 μM [2] was over 30 and the IC50 [3] was 0.01 to 100 nM.
Molecule `Cc1cccnc1[C@@H]1CCC[C@H](c2nc3cccc(N4CCNC(C)C4)c3[nH]2)N1C` (stereo partly shown) [I-50] has an IC50 [1] of 0.01 to 100 nM, a Papp A→B at 90 min, 10 μM [2] of 0.1 to 10 ×10⁻⁶ cm/s and a Papp B→A at 90 min, 10 μM [2] of 10 to 30 ×10⁻⁶ cm/s. The efflux ratio at 90 min, 10 μM [2] was 10 to 30 and the IC50 [3] was 0.01 to 100 nM.
For `Cc1cccnc1[C@@H]1C[C@@H](O)C[C@H](c2nc3cccc(N4CCN(C)CC4)c3[nH]2)N1C` [I-101], the IC50 [1] was 0.01 to 100 nM, the Papp A→B at 90 min, 10 μM [2] was 0.1 to 10 ×10⁻⁶ cm/s and the Papp B→A at 90 min, 10 μM [2] was 10 to 30 ×10⁻⁶ cm/s. It also gave an efflux ratio at 90 min, 10 μM [2] of over 30 and an IC50 [3] of 0.01 to 100 nM.
